# Measured values: patent publication US6500840B2, “Quinuclidine-substituted heteroaryl moieties for treatment of disease” (Pharmacia & Upjohn Company, priority 2000, dated 2002)
# Where a name gives a salt, the structure may show the parent alone. Read-outs that look alike come from different tables or passages of the source.
# Target: α7 nAChR (Rattus norvegicus, UniProt Q05941)
# Test: [3H]-MLA competition binding assay, rat brain membranes
# [1] = Ki, inhibition of [3H]-MLA binding (3.0 to 4.0 nM), Sprague-Dawley rat whole brain minus cerebellum homogenate, 1 hour at 25° C
# Experimental: Membrane Preparation. Male Sprague-Dawley rats (300-350 g) are sacrificed by decapitation and the brains (whole brain minus cerebellum) are dissected quickly, weighed and homogenized in 9 volumes/g wet weight of ice-cold 0.32 M sucrose using a rotating pestle on setting 50 (10 up and down strokes). The homogenate is centrifuged at 1,000×g for 10 minutes at 4° C. The supernatant is collected and centrifuged at 20,000×g for 20 minutes at 4° C. The resulting pellet is resuspended to a protein concentration of 1-8 mg/mL. Aliquots of 5 mL homogenate are frozen at −80° C. until needed for the assay.
# Binding Assay. […] Filters are pre-soaked in 50 mm Tris HCl pH 7.0-0.05% polyethylenimine. The filters are rapidly washed two times with 5 mL aliquots of cold 0.9% saline and then counted for radioactivity by liquid
# Data Analysis. […] Hill coefficients were obtained using non-linear regression (GraphPad Prism sigmoidal dose-response with variable slope).
# Chain of α7 nAChR (Q05941 23-502): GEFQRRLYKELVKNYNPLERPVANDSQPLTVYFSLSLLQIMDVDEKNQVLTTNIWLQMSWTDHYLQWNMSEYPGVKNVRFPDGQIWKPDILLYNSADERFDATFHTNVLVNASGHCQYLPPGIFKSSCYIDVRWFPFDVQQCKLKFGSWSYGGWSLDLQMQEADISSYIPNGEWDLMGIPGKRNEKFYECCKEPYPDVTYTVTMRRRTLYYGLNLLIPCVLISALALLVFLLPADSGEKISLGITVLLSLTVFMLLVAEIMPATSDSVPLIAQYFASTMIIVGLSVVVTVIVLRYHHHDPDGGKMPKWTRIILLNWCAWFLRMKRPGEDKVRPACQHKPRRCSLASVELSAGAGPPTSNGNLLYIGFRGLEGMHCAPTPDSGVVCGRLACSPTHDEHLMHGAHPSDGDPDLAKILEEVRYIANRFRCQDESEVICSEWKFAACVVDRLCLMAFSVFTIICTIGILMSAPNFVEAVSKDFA
compound,measurement,setting,value
"CC1C(NC(=O)c2ccc(Br)s2)C2CCN1CC2 (mixture of isomers) [Example 158, 5-Bromo-N-(2-methyl-1-azabicyclo[2.2.2]oct-3-yl)thiophene-2-carboxamide 4-Methylbenzenesulfonate]",Ki,[1],0.012 to 0.02 µM
"O=C(N[C@H]1CN2CCC1CC2)c1ccc(-c2ccccc2)s1 [Example 1, N-[(3R)-1-Azabicyclo[2.2.2]oct-3-yl]-5-phenyl-thiophene-2-carboxamide Hydrochloride]",Ki,[1],0.013 to 0.033 µM
"O=C(N[C@H]1CN2CCC1CC2)c1ccc(-c2ccc(Cl)cc2)s1 [Example 2, N-[(3R)-1-azabicyclo[2.2.2]oct-3-yl]-5-(4-clorophenyl)-thiophene-2-carboxamide hydrochloride]",Ki,[1],0.11 µM
"O=C(N[C@H]1CN2CCC1CC2)c1ccc(-c2cccc(Cl)c2)s1 [Example 3, N-[(3R)-1-azabicyclo[2.2.2]oct-3-yl]-5-(3-chlorophenyl)-thiophene-2-carboxamide hydrochloride]",Ki,[1],0.095 to 0.157 µM
"O=C(N[C@H]1CN2CCC1CC2)c1ccc(-c2ccccc2Cl)s1 [Example 4, N-[(3R)-1-azabicyclo[2.2.2]oct-3-yl]-5-(2-chlorophenyl)-thiophene-2-carboxamide hydrochloride]",Ki,[1],0.06 to 0.073 µM
"O=C(N[C@H]1CN2CCC1CC2)c1ccc(-c2ccsc2)s1 [Example 5, N-[(3R)-1-azabicyclo[2.2.2]oct-3-yl]-2,3′-bithiophene-5-carboxamide hydrochloride]",Ki,[1],0.009 to 0.015 µM
"O=C(N[C@H]1CN2CCC1CC2)c1ccc(-c2ccccc2[N+](=O)[O-])s1 [Example 6, N-[(3R) 1-azabicyclo[2.2.2]oct-3-yl]-5-(2-nitrophenyl)-thiophene-2-carboxamide hydrochloride]",Ki,[1],0.005 to 0.01 µM
"O=C(N[C@H]1CN2CCC1CC2)c1ccc(-c2cccc([N+](=O)[O-])c2)s1 [Example 7, N-[(3R)-1-azabicyclo[2.2.2]oct-3-yl]-5-(3-nitrophenyl)-thiophene-2-carboxamide]",Ki,[1],0.025 to 0.03 µM
"O=C(N[C@H]1CN2CCC1CC2)c1cc(-c2ccccc2)cs1 [Example 8, N-[(3R)-1-azabicyclo[2.2.2]oct-3-yl]4-phenyl-thiophene-2-carboxamide hydrochloride]",Ki,[1],0.046 µM
"O=C(N[C@H]1CN2CCC1CC2)c1ccc(-c2cccc(OCc3ccccc3)c2)s1 [Example 9, N-[(3R)-1-azabicyclo[2.2.2]oct-3-yl]-5-(3-benzyloxyphenyl)-thiophene-2-carboxamide hydrochloride]",Ki,[1],0.54 to 0.57 µM
"Nc1ccccc1-c1ccc(C(=O)N[C@H]2CN3CCC2CC3)s1 [Example 12, 5-(2-Aminophenyl)-N-[(3R)-1-azabicyclo[2.2.2]oct-3-yl]-thiophene-2-carboxamide]",Ki,[1],0.045 to 0.075 µM
"Cc1ccc(-c2ccc(C(=O)N[C@H]3CN4CCC3CC4)s2)s1 [Example 14, N-[(3R)-1-Azabicyclo[2.2.2]oct-3-yl]-5′-methyl-2,2′-bithiophene-5-carboxamide Hydrochloride]",Ki,[1],0.012 to 0.016 µM
"O=C(N[C@H]1CN2CCC1CC2)c1ccc(-c2ccc(Cl)s2)s1 [Example 15, N-[(3R)-1-Azabicyclo[2.2.2]oct-3-yl]-5′-chloro-2,2′-bithiophene-5-carboxamide Hydrochloride]",Ki,[1],0.04 to 0.09 µM
"O=C(N[C@H]1CN2CCC1CC2)c1ccc([N+](=O)[O-])s1 [Example 16, N-[(3R)-1-Azabicyclo[2.2.2]oct-3-yl]-5-nitro-thiophene-2-carboxamide Hydrochloride]",Ki,[1],0.003 to 0.008 µM
"NCc1ccc(C(=O)N[C@H]2CN3CCC2CC3)s1 [Example 17, 5-(Aminomethyl)-N-[(3R)-1-azabicyclo[2.2.2]oct-3-yl]-thiophene-2-carboxamide Dihydrochloride]",Ki,[1],0.26 to 0.385 µM
"N#Cc1ccc(C(=O)N[C@H]2CN3CCC2CC3)s1 [Example 18, N-[(3R)-1-Azabicyclo[2.2.2]oct-3-yl]-5-cyano-thiophene-2-carboxamide Hydrochloride]",Ki,[1],0.24 to 0.29 µM
"COc1ccc(C(=O)N[C@H]2CN3CCC2CC3)s1 [Example 19, N-[(3R)-1-Azabicyclo[2.2.2]oct-3-yl]-5-methoxy-thiophene-2-carboxamide Hydrochloride]",Ki,[1],0.024 µM
"O=C(N[C@H]1CN2CCC1CC2)c1ccc(-c2ccccn2)s1 [Example 20, N-[(3R)-1-Azabicyclo[2.2.2]oct-3-yl]-5-(pyridin-2-yl)-thiophene-2-carboxamide]",Ki,[1],0.003 to 0.005 µM
O=C(N[C@H]1CN2CCC1CC2)c1ccc(-c2cccs2)s1 [Example 21],Ki,[1],0.001 to 0.002 µM
"CSc1ccc(C(=O)N[C@H]2CN3CCC2CC3)s1 [Example 22, N-[(3R)-1-Azabicyclo[2.2.2]oct-3-yl]-5-(methylsulfanyl)-thiophene-2-carboxamide]",Ki,[1],0.001 to 0.006 µM
"O=C(N[C@H]1CN2CCC1CC2)c1ccc(Cl)s1 [Example 23, N-[(3R)-1-azabicyclo[2.2.2]oct-3-yl]-5-chloro-thiophene-2-carboxamide]",Ki,[1],0.006 to 0.01 µM
"Cc1ccc(C(=O)N[C@H]2CN3CCC2CC3)s1 [Example 25, N-[(3R)-1-azabicyclo[2.2.2]oct-3-yl]-5-methyl-thiophene-2-carboxamide]",Ki,[1],0.01 to 0.015 µM
"O=C(N[C@H]1CN2CCC1CC2)c1ccc(Br)s1 [Example 26, N-[(3R)-1-azabicyclo[2.2.2]oct-3-yl]-5-bromo-thiophene-2-carboxamide]",Ki,[1],0.005 to 0.02 µM
"O=C(N[C@H]1CN2CCC1CC2)c1ccc(Sc2ccccc2)s1 [Example 27, N-[(3R)-1-azabicyclo[2.2.2]oct-3-yl]-5-(phenylsulfanyl)-thiophene-2-carboxamide]",Ki,[1],0.035 to 0.16 µM
"O=C(N[C@H]1CN2CCC1CC2)c1ccc(Sc2ccc(Cl)cc2)s1 [Example 33, N-[(3R)-1-Azabicyclo[2.2.2]oct-3-yl]-5-(4-chlorophenylsulfanyl)-thiophene-2-carboxamide]",Ki,[1],0.027 µM
"O=C(N[C@H]1CN2CCC1CC2)c1ccc(Sc2ccc(F)cc2F)s1 [Example 34, N-[(3R)-1-azabicyclo[2.2.2]oct-3-yl]-5-(2,4-difluorophenyl-sulfanyl)-thiophene-2-carboxamide hydrochloride]",Ki,[1],0.03 to 0.039 µM
"O=C(N[C@H]1CN2CCC1CC2)c1ccc(Sc2cccc(Cl)c2)s1 [Example 35, N-[(3R)-1-azabicyclo[2.2.2]oct-3-yl]-5-(3-chlorophenyl-sulfanyl)-thiophene-2-carboxamide]",Ki,[1],0.03 to 0.05 µM
"O=C(N[C@H]1CN2CCC1CC2)c1ccc(Sc2ccc(F)c(Cl)c2)s1 [Example 36, N-[(3R)-1-azabicyclo[2.2.2]oct-3-yl]-5-(3-chloro-4-fluorophenylsulfanyl)-thiophene-2-carboxamide]",Ki,,0.11 to 0.115 µM
"O=C(N[C@H]1CN2CCC1CC2)c1ccc(Oc2ccccc2)s1 [Example 40, N-[(3R)-1-Azabicyclo[2.2.2]oct-3-yl]-5-phenoxy-thiophene-2-carboxamide Hydrochloride]",Ki,[1],0.012 to 0.016 µM
"O=C(N[C@H]1CN2CCC1CC2)c1ccc(-c2ccccc2O)s1 [Example 41, N-[(3R)-1-Azabicyclo[2.2.2]oct-3-yl]-5-(2-hydroxyphenyl)-thiophene-2-carboxamide Hydrochloride]",Ki,[1],0.034 µM
"O=C(N[C@H]1CN2CCC1CC2)c1ccc(-c2ccc(O)c(F)c2)s1 [Example 43, N-[(3R)-1-Azabicyclo[2.2.2]oct-3-yl]-5-(3-fluoro-4-hydroxyphenyl)-thiophene-2-carboxamide Hydrochloride]",Ki,[1],0.003 to 0.005 µM
"O=C(N[C@H]1CN2CCC1CC2)c1cnc(-c2ccccc2)s1 [Example 50, N-[(3R)-1-Azabicyclo[2.2.2]oct-3-yl]-2-phenyl-1,3-thiazole-5-carboxamide Fumarate]",Ki,[1],0.068 to 0.564 µM
"O=C(N[C@H]1CN2CCC1CC2)c1cnc(-c2ccccc2F)s1 [Example 52, N-[(3R)-1-Azabicyclo[2.2.2]oct-3-yl]-2-(2-fluorophenyl)-1,3-thiazole-5-carboxamide Citrate]",Ki,[1],0.34 to 0.48 µM
"O=C(N[C@H]1CN2CCC1CC2)c1cnc(-c2cccc(F)c2)s1 [Example 53, N-[(3R)-1-azabicyclo[2.2.2]oct-3-yl]-2-(3-fluorophenyl)-1,3-thiazole-5-carboxamide 4-methylbenzenesulfonate]",Ki,[1],1.9 to 1.97 µM
"O=C(N[C@H]1CN2CCC1CC2)c1cnc(-c2ccccc2O)s1 [Example 55, N-[(3R)-1-azabicyclo[2.2.2]oct-3-yl]-2-(2-hydroxyphenyl)-1,3-thiazole-5-carboxamide hydrochloride]",Ki,[1],0.06 to 0.07 µM
"O=C(N[C@H]1CN2CCC1CC2)c1ncc(-c2cccc(Cl)c2)o1 [Example 79, N-[(3R)-1-Azabicyclo[2.2.2]oct-3-yl]-5-(3-chlorophenyl)-1,3-oxazole-2-carboxamide 4-Methylbenzenesulfonate]",Ki,[1],0.02 to 0.075 µM
"COc1cccc(-c2cnc(C(=O)N[C@H]3CN4CCC3CC4)o2)c1 [Example 80, N-[(3R)-1-azabicyclo[2.2.2]oct-3-yl]-5-(3-methoxyphenyl)-1,3-oxazole-2-carboxamide 4-methylbenzenesulfonate]",Ki,[1],0.05 to 0.06 µM
"O=C(N[C@H]1CN2CCC1CC2)c1ncc(-c2cccc([N+](=O)[O-])c2)o1 [Example 81, N-[(3R)-1-azabicyclo[2.2.2]oct-3-yl]-5-(3-nitrophenyl)-1,3-oxazole carboxamide 4-methylbenzenesulfonate]",Ki,[1],0.055 to 0.175 µM
"COc1ccc(-c2cnc(C(=O)N[C@H]3CN4CCC3CC4)o2)cc1 [Example 82, N-[(3R)-1-azabicyclo[2.2.2]oct-3-yl]-5-(4-methoxyphenyl)-1,3-oxazole-2-carboxamide 4-methylbenzenesulfonate]",Ki,[1],0.115 to 0.125 µM
"O=C(N[C@H]1CN2CCC1CC2)c1ncc(-c2ccccc2[N+](=O)[O-])o1 [Example 83, N-[(3R)-1-azabicyclo[2.2.2]oct-3-yl]-5-(2-nitrophenyl)-1,3-oxazole-2-carboxamide 4-methylbenzenesulfonate]",Ki,[1],0.002 to 0.003 µM
"COc1ccccc1-c1cnc(C(=O)N[C@H]2CN3CCC2CC3)o1 [Example 84, N-[(3R)-1-azabicyclo[2.2.2]oct-3-yl]-5-(2-methoxyphenyl)-1,3-oxazole-2-carboxamide 4-methylbenzenesulfonate]",Ki,[1],1.1 to 1.49 µM
"O=C(N[C@H]1CN2CCC1CC2)c1ncc(-c2ccc(F)cc2)o1 [Example 85, N-[(3R)-1-azabicyclo[2.2.2]oct-3-yl]-5-(4-fluorophenyl)-1,3-oxazole-2-carboxamide 4-methylbenzenesulfonate]",Ki,[1],0.03 to 0.04 µM
